Values quoted from earlier work, collected in PubChem BioAssay AID1259409 (Chemical Carcinogenesis Research Information System (CCRIS), 2018).

Tested on: rodent chemically induced tumor inhibition, incidence and multiplicity
Experiment: CCRIS tumor inhibitor studies

In the case of `COc1c2occc2cc2ccc(=O)oc12`, the outcome (Carcinogen: 4-(N-methyl-N-nitrosamino)-1-(3-pyridyl)-1-butanone, 64091-91-4, Dose [Inhibitor]: 0, 1, 10, 100 ppm in diet for 3 d beginning at 7 wks of age, tumors collected 16 wk after treatment, Route [Inhibitor]: Oral, Species: Mouse, Strain/Sex: A/J/Female, Target Tissue: Type of Lesion: Lung: Adenomas, Dose [Carcinogen]: Single dose of 2 mg 3 days after first inhibitor treatment (Test material solvent: saline), Promoter: None) is given as 12/20 (75%), 17/20 (95%), 14/20 (70%), 10/20 (50%), p<0.001.

For `O=C1CCN(c2ccccc2)N1`, the “tumour outcome (control, treated, inhibition, significance)” value (Carcinogen: 7,12-DIMETHYLBENZ[A]ANTHRACENE, 57-97-6, Dose [Inhibitor]: 30 UMOL APPLIED 30-40 MIN BEFORE EACH TPA TREATMENT AND CONCURRENTLY WITH TPA (STUDY DURATION: 18 WK), Route [Inhibitor]: DERMAL, Species: MOUSE, Strain/Sex: CD-1/FEMALE, Target Tissue: Type of Lesion: SKIN: PAPILLOMA, Dose [Carcinogen]: 200 NMOL ONCE, Promoter: 12-O-TETRADECANOYLPHORBOL-13-ACETATE, 16561-29-8) is listed as 96%, 100%, -4%, not calculated.

For `COC(=O)/C(C)=C/C=C/C(C)=C\C=C\C=C(C)\C=C\C=C(C)\C=C\C1=C(C)CCCC1(C)C`, the “tumour outcome (control, treated, inhibition, significance)” value (Carcinogen: BENZO[A]PYRENE, 50-32-8, Dose [Inhibitor]: 0, 4.7 MICROMOLAR/D IN 0.1 ML PEANUT OIL BEGINNING 2 WK PRIOR TO CARCINOGEN TREATMENT AND CONTINUING TO 2 WK POST CARCIN, Route [Inhibitor]: GAVAGE, Species: MOUSE, Strain/Sex: SWISS/FEMALE, Target Tissue: Type of Lesion: FORESTOMACH: TUMOR, Dose [Carcinogen]: 1 MG 2/WK IN 0.1 ML PEANUT OIL FOR 4 WK, Promoter: NONE USED) is listed as 20/20 (100%), 4/20 (20%), 80%, p<0.001.

In the case of `C[Se+](C)CC(=O)[O-]`, the “tumour outcome (control, treated, inhibition, significance)” value (Carcinogen: 7,12-DIMETHYLBENZ[A]ANTHRACENE, 57-97-6, Dose [Inhibitor]: 0, 0.000025 MOL/KG DIET BEGINNING 2 WK PRIOR TO CARCINOGEN AND CONTINUED FOR STUDY DURATION (STUDY DURATION: 25 WK), Route [Inhibitor]: ORAL, Species: RAT, Strain/Sex: CD-1/FEMALE, Target Tissue: Type of Lesion: MAMMARY GLAND: ADENOCARCINOMA, Dose [Carcinogen]: 10 MG ONCE, Promoter: NONE USED) is listed as 20/25 (80%), 11/25 (44%), 45%, p<0.05.

For `CC1(C)CC[C@]2(CO)CC[C@]3(C)C(=CC[C@@H]4[C@@]5(C)CC[C@H](O)[C@@](C)(CO)[C@@H]5CC[C@]43C)[C@H]2C1`, the “tumour outcome (control, treated, inhibition, significance)” value (Carcinogen: 7,12-DIMETHYLBENZ[A]ANTHRACENE, 57-97-6, Dose [Inhibitor]: 81 NMOL IN 100 µL ACETONE/DMSO (99:1) APPLIED 40 MIN PRIOR TO EACH PROMOTER DOSE (STUDY DURATION: 18 WK), Route [Inhibitor]: DERMAL, Species: MOUSE, Strain/Sex: ICR, Target Tissue: Type of Lesion: SKIN: CARCINOMA, Dose [Carcinogen]: 100 UG ONCE, Promoter: 12-O-TETRADECANOYLPHORBOL-13-ACETATE, 16561-29-8) is listed as 100%, 20%, 80%, not calculated.

For `CC/C=C\C/C=C\C/C=C\C/C=C\C/C=C\C/C=C\CCC(=O)O`, the “tumour outcome (control, treated, inhibition, significance)” value (Carcinogen: 7,12-DIMETHYLBENZ[A]ANTHRACENE, 57-97-6, Dose [Inhibitor]: 0, 0.5 ML 2/WK FOR 19 WK BEGINNING 1 WK POST CARCINOGEN DOSE ADMINISTERED TO RATS FED HIGH-FAT (20% CORN OIL) DIETS (STU, Route [Inhibitor]: GAVAGE, Species: RAT, Strain/Sex: SPRAGUE-DAWLEY/FEMALE, Target Tissue: Type of Lesion: MAMMARY GLAND: ADENOCARCINOMA, Dose [Carcinogen]: 5 MG ONCE AT 50 D OF AGE, Promoter: NONE USED) is listed as 24/30 (80%), 6/24 (25%), 69%, p<0.05.

For `Cn1cnc2[nH]c(=O)[nH]c(=O)c21`, the “tumour outcome (control, treated, inhibition, significance)” value (Carcinogen: URETHANE, 51-79-6, Dose [Inhibitor]: 0.05 UMOL/G BW GIVEN AT 6 HR INTERVALS DURING THE PERIOD OF 0 TO 36 HR AFTER CARCINOGEN TREATMENT FOLLOWED BY 5 MO OBSER, Route [Inhibitor]: INTRAPERITONEAL, Species: MOUSE, Strain/Sex: ICR/FEMALE, Target Tissue: Type of Lesion: LUNG: PAPILLARY ADENOMA, Dose [Carcinogen]: 0.1 MG/G BW ONCE, Promoter: NONE USED) is given as 31/59 (53%), 18/48 (38%), 28%, p 0.12 and the “tumour outcome (control, treated, inhibition, significance)” value (Carcinogen: URETHANE, 51-79-6, Dose [Inhibitor]: 0.25 UMOL/G BW 1/D DURING THE PERIOD OF 5 TO 9 D AFTER CARCINOGEN TREATMENT FOLLOWED BY OBSERVATION PERIOD UNTIL END OF, Route [Inhibitor]: INTRAPERITONEAL, Species: MOUSE, Strain/Sex: ICR/FEMALE, Target Tissue: Type of Lesion: LUNG: PAPILLARY ADENOMA, Dose [Carcinogen]: 1 MG/G BW ONCE, Promoter: NONE USED) is given as 49/53 (93%), 43/62 (69%), 26%, p<0.01.

In the case of `c1ccc2c(c1)Nc1ccccc1S2`, the “tumour outcome (control, treated, inhibition, significance)” value (Carcinogen: BENZO[A]PYRENE, 50-32-8, Dose [Inhibitor]: 0, 3.8 UMOL/G DIET BEGINNING 1 WK PRIOR TO CARCINOGEN TREATMENT AND CONTINUING FOR 1 WK POST CARCINOGEN TREATMENT FOLLOW, Route [Inhibitor]: ORAL, Species: MOUSE, Strain/Sex: CD-1/FEMALE, Target Tissue: Type of Lesion: FORESTOMACH: PAPILLOMA, Dose [Carcinogen]: 1 MG IN 0.2 ML CORN OIL 2/WK FOR 4 WK, Promoter: NONE USED) is given as 85%, 100%, -18%, not significant.
